Reference: patent US12510533B2, “Methods for treating multiple myeloma and the use of companion biomarkers for 4-(4-(4-(((2-(2,6-dioxopiperidin-3-yl)-1-oxoisoindolin-4-yl)oxy)methyl)benzyl)piperazin-1-yl)-3-fluorobenzonitrile” (Celgene Corporation, priority 2018, dated 2025)
Read-outs that look alike come from different tables or passages of the source.

Legend:
Aiolos [1] = target: T1, Aiolos (Homo sapiens, UniProt Q96SW2+Q9UKT9); experiment: Phase 1 study, Aiolos expression by flow cytometry in CD3+ T cells; assay type: in vivo; conditions: QD days 1-10, 15-24/28 and BID days 1-3, 15-17/28; recovered during dosing interruptions
T1 construct: expressed in transfected cells; host or cells: DF15 multiple myeloma cells
Procedure: FIG. 24A and FIG. 24B illustrate that Compound 2 induces Aiolos degradation in CD3+ T cells from peripheral blood of relapsed/refractory multiple myeloma patients after (FIG. 24A) the once daily (QD) 1-10, 15-24/28 schedule, or (FIG. 24B) the twice daily (BID) 1-3, 15-17/28 schedule.
Aiolos expression was measured by flow cytometry in CD3+ T cells before and during Compound 2 treatment in two different dosing schedules (QD administration on days 1 to 10 and days 15 to 24 of a 28 day cycle, and BID administration on days 1 to 3 and days 15 to 17 of a 28 day cycle).

interferon gamma (IFN-γ) = experiment: IFN-γ production by TCR-activated healthy PBMCs; assay type: cell-based, human; conditions: 24 hours
Procedure: FIG. 21A-FIG. 21C illustrate that Compound 2 is a potent inducer of effector cytokines. […] (FIG. 21A) IL-2, (FIG. 21B) IFN-γ, and (FIG. 21C) TNF-α. Data shown are an average from three or four donors and are represented as fold change over DMSO control; error bars represent standard error of the mean (SEM).
The immunomodulatory activity of Compound 2 on T cell receptor (TCR)-activated healthy PBMCs was assessed. […] This increased in cytokine secretion was evident as early as 24 hours after introduction of Compound 2 with the peak of the effector cytokine production induced by Compound 2 being 5.5-fold for IL-2, 4.5-fold for interferon gamma (IFN-γ), and 2-fold for tumor necrosis factor alpha (TNF-α) above the vehicle control (FIG. 21A-FIG. 21C, respectively).

NCI-H929 = experiment: Tumor cell lysis by anti-CD3-activated, compound-treated PBMCs, co-culture with untreated NCI-H929; assay type: cell-based; conditions: Homo sapiens; lenalidomide-sensitive NCI-H929, untreated; 24-hour co-culture
Ikaros and Aiolos = experiment: Immunoblot of Ikaros and Aiolos in H929-1051 cells; assay type: cell-based, human; conditions: within 4 hours
Procedure: FIG. 6A and FIG. 6B illustrate that Compound 2 degraded Ikaros and Aiolos in a concentration dependent manner, which induced apoptosis and cell cycle arrest in pomalidomide-resistant multiple myeloma cells. Shown is immunoblot analysis of pomalidomide-resistant MM cells (H929-1051) incubated with Compound 2 for (FIG. 6A) 4 hours or (FIG. 6B) 72 hours.
Incubation with concentrations as low as 1 nM of Compound 2 promoted the robust degradation of Ikaros and Aiolos within 4 hours (FIG. 6A).

[2] = tested on: multiple myeloma cell lines with acquired resistance; experiment: Proliferation (CellTiter-Glo, 5 days) of parental and lenalidomide- or pomalidomide-resistant MM cell lines; assay type: cell-based, human
Procedure: Cell lines were treated with (FIG. 11A) Pomalidomide, or (FIG. 11B) Compound 2 for 5 days and IC50 values were assessed using an ATP determination assay (CellTiter-Glo). Percent control was calculated by subtracting the background and normalizing to the DMSO control (100% of control).
Cells were treated for 5 days and then assessed using an ATP determination assay (CellTiter-Glo). The percentage of control was calculated by subtracting the background and normalizing to the DMSO control (100% of control).
Proliferation was assessed using the CellTitre-Glo® assay.

Aiolos [3] = target: T1, Aiolos; experiment: Aiolos degradation, ePL luminescence assay in DF15 cells expressing ePL-tagged Aiolos; assay type: cell-based; conditions: for DC50: read-out: Degradation of Aiolos IC50, DF15 cells
Procedure: FIG. 1 illustrates that Compound 2 and Compound 3 degraded Aiolos protein in a time and concentration dependent manner. DF15 cells expressing Enhanced ProLabel (ePL)-tagged Aiolos were incubated with Compound 2 (triangle) or Compound 3 (square) for 45 minutes, 90 minutes, or 3 hours at the indicated concentrations. Cell extracts were then generated and the amount of Aiolos-ePL protein was determined by ePL luminescence assay.
The relative effectiveness of Compound 2 and Compound 3 to promote the destruction of Aiolos protein by the CRL4^CRBN E3 ubiquitin ligase was investigated in DF15 myeloma cells at different time points (45 minutes, 90 minutes, and 3 hours). DF15 cells expressing Enhanced ProLabel (ePL)-tagged Aiolos were incubated with Compound 2 or Compound 3 for 45 minutes, 90 minutes, or 3 hours. Cell extracts were then generated and the amount of Aiolos ePL protein was determined by ePL luminescence assay. Values shown in Table 1 correspond to data presented in FIG. 1 for Aiolos content vs. concentration.

Ikaros = Ikaros (Homo sapiens, UniProt Q13422+Q96SW2); experiment: Ikaros degradation in CD8+ T cells; assay type: cell-based; parameters: The effects of Compound 2 on the degradation of Ikaros in CD4+ and CD8+ T cells; endogenous in cells; host or cells: CD4+ and CD8+ T cells of healthy donors; CD34+ bone marrow cells of healthy donors; CD3+ T cells of multiple myeloma patients; conditions: 24 hours (data not shown), read-out: Ikaros degradation IC50
Procedure: The effects of Compound 2 on the degradation of Ikaros in CD4+ and CD8+ T cells over a 72 hour time course were investigated. The ability of Compound 2 to induce effector cytokine release correlated with degradation of Ikaros in CD4+ T cells, a known transcriptional repressor of IL-2 (FIG. 22A-FIG. 22C). […] The ability of Compound 2 to degrade Ikaros was also observed at the 48 and 72 hour time point in both CD4+(FIG. 22B and FIG. 22C) and CD8+ (data not shown) T cell populations. […] Thus, Ikaros and Aiolos can serve as biomarkers of T-cell activation.

Aiolos, Ikaros, ZFP91 = experiment: Immunoblot of OPM2 cells after five-day incubation; assay type: cell-based, human; conditions: Compound 2 alone
Procedure: FIG. 4 illustrates that Compound 2 induced the degradation of Ikaros, Aiolos, ZFP91, c-Myc, and IRF4, which correlates with induction of the apoptotic protein cleaved-Caspase 3, and the cell cycle arrest protein p21. Immunoblot analysis of OPM2 parental cells incubated with Compound 2 at the indicated concentrations is shown. Actin is a loading control.
Ikaros and Aiolos degradation was followed by reduction in the levels of two additional and highly critical transcription factors, c-Myc and IRF4 (FIG. 4). The loss or reduction of these factors was associated with an increase of the cyclin-dependent kinase inhibitor p21 and induction of apoptosis, as measured by cleaved caspase-3 (FIG. 4).

T1 sequence (Q9UKT9 whole entry): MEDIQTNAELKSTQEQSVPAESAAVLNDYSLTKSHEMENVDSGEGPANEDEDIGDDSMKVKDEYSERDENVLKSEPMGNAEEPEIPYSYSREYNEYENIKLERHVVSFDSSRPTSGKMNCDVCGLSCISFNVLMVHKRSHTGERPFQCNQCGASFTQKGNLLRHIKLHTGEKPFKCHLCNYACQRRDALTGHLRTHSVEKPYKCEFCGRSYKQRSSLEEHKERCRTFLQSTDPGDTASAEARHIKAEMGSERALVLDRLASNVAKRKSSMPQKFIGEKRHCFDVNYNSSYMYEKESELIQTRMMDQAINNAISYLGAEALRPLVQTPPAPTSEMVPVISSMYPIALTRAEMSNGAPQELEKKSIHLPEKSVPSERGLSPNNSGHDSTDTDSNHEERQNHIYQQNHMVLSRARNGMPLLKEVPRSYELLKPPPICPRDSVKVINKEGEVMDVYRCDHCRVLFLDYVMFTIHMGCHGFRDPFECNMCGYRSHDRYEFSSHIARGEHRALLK
T1 sequence (Q96SW2 whole entry): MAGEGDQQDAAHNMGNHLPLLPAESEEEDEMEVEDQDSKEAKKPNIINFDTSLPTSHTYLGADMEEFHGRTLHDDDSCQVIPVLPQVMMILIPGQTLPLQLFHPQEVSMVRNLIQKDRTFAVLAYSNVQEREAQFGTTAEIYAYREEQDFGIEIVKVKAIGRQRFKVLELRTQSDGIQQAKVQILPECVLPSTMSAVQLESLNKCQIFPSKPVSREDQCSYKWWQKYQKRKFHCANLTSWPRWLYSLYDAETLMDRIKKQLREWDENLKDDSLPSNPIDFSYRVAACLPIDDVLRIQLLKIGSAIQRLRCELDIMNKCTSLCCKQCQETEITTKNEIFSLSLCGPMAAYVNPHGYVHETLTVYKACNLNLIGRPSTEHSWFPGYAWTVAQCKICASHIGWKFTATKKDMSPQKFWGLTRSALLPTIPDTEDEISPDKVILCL
T1 sequence (Q16531 2-1140, further chain): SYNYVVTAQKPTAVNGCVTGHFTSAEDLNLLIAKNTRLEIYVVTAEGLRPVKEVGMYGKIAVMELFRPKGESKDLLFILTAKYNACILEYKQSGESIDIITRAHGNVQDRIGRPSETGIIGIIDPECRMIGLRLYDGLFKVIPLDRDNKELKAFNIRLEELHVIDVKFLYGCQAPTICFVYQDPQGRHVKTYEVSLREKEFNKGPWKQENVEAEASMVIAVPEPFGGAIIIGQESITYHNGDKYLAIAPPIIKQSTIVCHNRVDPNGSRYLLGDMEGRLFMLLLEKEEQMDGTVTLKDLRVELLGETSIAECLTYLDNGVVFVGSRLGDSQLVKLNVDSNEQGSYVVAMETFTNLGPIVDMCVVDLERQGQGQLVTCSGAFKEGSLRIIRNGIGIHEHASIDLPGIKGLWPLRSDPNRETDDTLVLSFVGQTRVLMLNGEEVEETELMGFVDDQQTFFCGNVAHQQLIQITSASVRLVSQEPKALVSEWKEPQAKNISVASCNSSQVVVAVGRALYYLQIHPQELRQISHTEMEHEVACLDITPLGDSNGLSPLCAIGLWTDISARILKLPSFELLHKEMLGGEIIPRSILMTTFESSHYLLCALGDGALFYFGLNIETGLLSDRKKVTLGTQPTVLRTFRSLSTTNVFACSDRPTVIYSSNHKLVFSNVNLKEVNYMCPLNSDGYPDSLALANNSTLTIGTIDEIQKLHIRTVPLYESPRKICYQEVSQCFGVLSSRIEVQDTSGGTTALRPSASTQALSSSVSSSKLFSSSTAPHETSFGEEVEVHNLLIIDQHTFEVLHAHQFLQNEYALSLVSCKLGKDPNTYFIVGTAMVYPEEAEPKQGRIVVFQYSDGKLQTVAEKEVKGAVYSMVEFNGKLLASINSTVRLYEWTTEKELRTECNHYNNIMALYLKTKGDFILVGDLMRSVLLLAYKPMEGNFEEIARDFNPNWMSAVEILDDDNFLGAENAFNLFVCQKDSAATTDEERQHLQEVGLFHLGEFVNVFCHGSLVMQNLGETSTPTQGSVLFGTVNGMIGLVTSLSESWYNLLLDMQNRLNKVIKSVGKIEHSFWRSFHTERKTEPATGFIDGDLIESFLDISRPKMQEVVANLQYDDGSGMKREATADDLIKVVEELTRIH
Sequence of Ikaros (Q13422 whole entry): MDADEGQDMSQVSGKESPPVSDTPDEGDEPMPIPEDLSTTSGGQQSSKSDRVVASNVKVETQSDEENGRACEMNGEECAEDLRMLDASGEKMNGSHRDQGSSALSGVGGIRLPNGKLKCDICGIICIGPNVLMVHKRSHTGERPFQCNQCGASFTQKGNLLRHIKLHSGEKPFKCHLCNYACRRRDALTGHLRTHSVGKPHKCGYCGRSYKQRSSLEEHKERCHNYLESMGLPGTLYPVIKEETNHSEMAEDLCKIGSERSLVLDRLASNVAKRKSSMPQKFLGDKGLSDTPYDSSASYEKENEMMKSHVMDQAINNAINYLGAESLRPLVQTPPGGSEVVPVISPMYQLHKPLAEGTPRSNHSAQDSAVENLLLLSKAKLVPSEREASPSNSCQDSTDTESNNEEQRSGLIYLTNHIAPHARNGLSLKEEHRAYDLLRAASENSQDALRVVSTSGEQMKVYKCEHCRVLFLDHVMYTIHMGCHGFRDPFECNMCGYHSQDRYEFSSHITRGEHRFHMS
Sequence of Ikaros (Q16531 2-1140, further chain): as the sequence (Q16531 2-1140, further chain) above
Sequence of Ikaros (Q96SW2 whole entry): as the sequence (Q96SW2 whole entry) above

N#Cc1ccc(N2CCN(Cc3ccc(COc4cccc5c4CN([C@H]4CCC(=O)NC4=O)C5=O)cc3)CC2)c(F)c1 [Compound 2, (S)-4-(4-(4-(((2-(2,6-dioxopiperidin-3-yl)-1-oxoisoindolin-4-yl)oxy)methyl)benzyl)piperazin-1-yl)-3-fluorobenzonitrile]
Aiolos degradation in CD3+ T cells (Aiolos [1]): dose dependent
peak IFN-γ production above the vehicle control (interferon gamma (IFN-γ)): 4.5 fold
IC50 (NCI-H929): 5 nM
lowest concentration promoting robust degradation of Ikaros and Aiolos (Ikaros and Aiolos): 1 nM
sensitivity of cell lines with acquired resistance and low CRBN [2]: sensitive
anti-proliferative activity ([2]; DF15R cell line, lacks CRBN expression): little anti-proliferative activity
manner of Aiolos degradation (Aiolos [3]; 45 minutes, 90 minutes, 3 hours): time-dependent and concentration-dependent
inhibition at 0.001 µM (Aiolos [3]; DF15, read-out: inhibition at 0.001 μM): 27%
DC50 (Aiolos [3]; 45 minutes incubation): > 100 nM
DC50 (Aiolos [3]; 90 minutes incubation): 0.36 nM
DC50 (Aiolos [3]; 3 hours incubation): 0.031 nM
DC50 (Ikaros): 0.5 nM
expression level of Aiolos and Ikaros, as well as ZFP91 (Aiolos, Ikaros, ZFP91): significantly decreased
